From US11452725B2, “Chiral diaryl macrocycles and uses thereof” (TURNING POINT THERAPEUTICS, INC., priority 2015, dated 2022)

Assays:
paxillin = assay: Immunoblotting SRC substrate phosphorylation, NCI-H2228 cells; assay type: cell-based; settings: Homo sapiens; NCI-H2228 cell line
Method: (§1) NSCLC cell line H2228 (harboring endogenous EML4-ALK fusion gene) was cultured in RPMI medium supplemented with 10% fetal bovine serum and 100 U/mL of penicillin/streptomycin. Ba/F3 and NIH3T3 cells stably expressing ROS1, or TRKA, or TRKB, or TRKC (WT or mutant) were cultured as mentioned above. […] Cells were collected after treatment and lysed in RIPA buffer (50 mM Tris, pH 7.4, 150 mM NaCl, 1% NP-40, 0.5% Deoxycholate, 0.1% SDS) supplemented with 10 mM EDTA, 1× Halt protease and phosphatase inhibitors (Thermo Scientific). Protein lysates (approximately 20 μg) was resolved on 4-12% Bolt Bis-Tris precasted gels with MES running buffer (Life Technologies), transferred to nitrocellulose membranes using Trans-Blot Turbo Transfer System (Bio-Rad) and detected with antibodies targeting phosphorylated phosphorylated ROS1 and total ROS1 (Cell Signaling Technology), phosphorylated TRK A/B (Cell Signaling Technology), total TRKA antibody (Santa Cruz Biotechnology), phosphorylated SRC Y416 (Cell Signaling Technology), total SRC (Cell Signaling Technology), phosphorylated FAK Y576/577 (Cell Signaling Technology), total FAK (Cell Signaling Technology), phosphorylated paxillin Y118 (Cell Signaling Technology), total paxillin (Cell Signaling Technology), phosphorylated EGFR and total EGFR, CD44, and Tubulin (Sigma). […]

MARK3 = molecular target: T1, MARK3 (Homo sapiens, UniProt P27448); assay: Biochemical kinase assay (Reaction Biology); settings: 10 μM ATP
T1 construct: purchased Reaction Biology Corporation (contract assay)
Method: (§2) Specific kinase/substrate pairs along with required cofactors were prepared in reaction buffer; 20 mM Hepes pH 7.5, 10 mM MgCl2, 1 mM EGTA, 0.02% Brij35, 0.02 mg/ml BSA, 0.1 mM Na3VO4, 2 mM DTT, 1% DMSO (for specific details of individual kinase reaction components see Supplementary Table 2). Compounds were delivered into the reaction, followed ˜20 minutes later by addition of a mixture of ATP (Sigma, St. Louis Mo.) and ^33P ATP (Perkin Elmer, Waltham Mass.) to a final concentration of 10 μM. Reactions were carried out at room temperature for 120 min, followed by spotting of the reactions onto P81 ion exchange filter paper (Whatman Inc., Piscataway, N.J.). […] IC50 values and curve fits were obtained using Prism (GraphPad Software).

EPHA1 = molecular target: T2, EPHA1 (Homo sapiens, UniProt P21709); assay: Biochemical kinase assay (Reaction Biology); settings: 10 μM ATP
T2 construct: purchased Reaction Biology Corporation (contract assay)
Method: as §2

Ba/F3 + IL3 parental = assay: Cell proliferation assay (CellTiter-Glo); assay type: cell-based; settings: Mus musculus, BaF3; parental cells with IL3
[1] = system: Ba/F3 TEL-TRKC (ETV6-TRKC) G623R cell line; assay: Cell proliferation assay (CellTiter-Glo); assay type: cell-based; settings: Mus musculus, BaF3; 72 hours
FYN = molecular target: T3, FYN (Homo sapiens, UniProt P06241); assay: Biochemical kinase assay (Reaction Biology); settings: 10 μM ATP
T3 construct: purchased Reaction Biology Corporation
Method: as §2

EPHA8 = molecular target: T4, EPHA8 (Homo sapiens, UniProt P29322); assay: Biochemical kinase assay (Reaction Biology); settings: 10 μM ATP
T4 construct: purchased Reaction Biology Corporation (contract assay)
Method: as §2

YES = molecular target: T5, YES (Homo sapiens, UniProt P07947); assay: Biochemical kinase assay (Reaction Biology); settings: 10 μM ATP
T5 construct: purchased Reaction Biology Corporation
Method: as §2

KM12 tumors = assay: KM12 colorectal cancer subcutaneous xenograft model; assay type: in vivo, athymic nude mice; settings: seven days
Method: Female athymic nude mice and SCID/Beige mice (5-8 weeks of age) were obtained from Charles River Laboratory and were housed in Innovive IVC disposable cages on HEPA filtered ventilated racks with ad libitum access to rodent chow and water. Five million cells in 100 μL, serum-free medium were implanted subcutaneously in the right flank region of the mouse. […] KM12 cells, NIH3T3 EML4-ALK wild type mutant cells, and NIH3T3 SCD4-ROS1 wild type mutant cells were implanted into the athymic nude mice, respectively. All models except KM12 were implanted with 50% matrigel (Corning, Inc) in the medium. Tumor size and body weight were measured on designated days. Tumor size was measured with an electronic caliper and tumor volume was calculated as the product of length*width^2*0.5.

Karpas 299 tumors = assay: Karpas 299 ALCL subcutaneous xenograft model; assay type: in vivo, SCID/Beige mice; settings: 50 mg/kg BID orally, seven days
Method: Female athymic nude mice and SCID/Beige mice (5-8 weeks of age) were obtained from Charles River Laboratory and were housed in Innovive IVC disposable cages on HEPA filtered ventilated racks with ad libitum access to rodent chow and water. Five million cells in 100 μL, serum-free medium were implanted subcutaneously in the right flank region of the mouse. […] Tumor size and body weight were measured on designated days. Tumor size was measured with an electronic caliper and tumor volume was calculated as the product of length*width^2*0.5.
The control group of mice were given vehicle only. […] In the case of TMVTreated Last Day of Treatment<TMVTreated First Day of Treatment, tumor regression (REG) was calculated as 100%*(1−TMVTreated Last Day of Treatment/TMVTreated First Day of Treatment).

TXK = molecular target: T6, TXK (Homo sapiens, UniProt P42681); assay: Biochemical kinase assay (Reaction Biology); settings: 10 μM ATP
T6 construct: purchased Reaction Biology Corporation
Method: as §2

BLK = molecular target: T7, BLK (Homo sapiens, UniProt P51451); assay: Biochemical kinase assay (Reaction Biology); settings: 10 μM ATP
T7 construct: purchased Reaction Biology Corporation (contract assay)
Method: as §2

JAK1 = molecular target: T8, JAK1 (Homo sapiens, UniProt P23458); assay: Biochemical kinase assay (Reaction Biology); settings: 10 μM ATP
T8 construct: purchased Reaction Biology Corporation (contract assay)
Method: as §2

Karpas-299 cells = assay: Apoptosis/caspase activity assay; assay type: cell-based; settings: 48 hours treatment
Method: Karpas-299 cells were maintained in RPMI medium supplemented with 10% fetal bovine serum and antibiotics. Five hundred thousand cells per well were seeded in 12-well plate and various concentration of compounds were introduced and incubated for 48 hrs. The cells were then collected and lysed in a lysis buffer (20 mM HEPES, 150 mM NaCl, 10 mM KCl, 5 mM EDTA, 1% NP40) supplemented with Halt protease and phosphatase inhibitors (Thermo Scientific). For caspase assays, approximately 20 μg of cell lysate were incubated with 20 μl of caspase-3 glo reagent (Promega), and the enzyme activity was measured by the release of luminescence after 20 min incubation at 37° C. For western blotting, cell lysate were boiled and analyzed by SDS-PAGE/immunoblotting using anti-caspase-3 (Cell Signaling Technology), anti-PARP (Cell Signaling Technology), or anti-actin (Cell Signaling Technology) antibodies. Antibodies were typically incubated overnight at 4° C. with gentle shake, followed by washes and incubation with the appropriate HRP-conjugated secondary antibodies. Membranes were incubated with chemiluminescent substrate for 5 min at room temperature (SuperSignal West Femto, Thermo Scientific), and the chemiluminescent images were obtained with a C-DiGit Imaging System (LI-COR Biosciences).

[2] = system: Ba/F3 EML4-ALK F1174C cell line; assay: Cell proliferation assay (CellTiter-Glo); assay type: cell-based; settings: Mus musculus, 72 hours
HCK = molecular target: T9, HCK (Homo sapiens, UniProt P08631); assay: Biochemical kinase assay (Reaction Biology); settings: 10 μM ATP
T9 construct: purchased Reaction Biology Corporation (contract assay)
Method: as §2

EGFR = EGFR expression by immunoblotting in H2228 cells; assay type: cell-based, human; settings: 4 and 24 hour exposure, 0-1000 nM
Method: as §1

[3] = system: Ba/F3 EML4-ALK G1202R tumors; assay: Ba/F3 EML4-ALK G1202R subcutaneous xenograft model; assay type: in vivo, SCID/Beige mice; settings: 75 mg/kg BID orally, 17 days
HCC78 cell line = assay: Cell proliferation assay (CellTiter-Glo); assay type: cell-based; settings: Homo sapiens, 72 hours, SLC34A2-ROS1 fusion gene
Method: Two thousand cells per well were seeded in 384 well white plate for 24 hrs, and then treated with compounds for 72 hours (37° C., 5% CO2). Cell proliferation was measured using CellTiter-Glo luciferase-based ATP detection assay (Promega) following the manufactures's protocol. IC50 determinations were performed using GraphPad Prism software (GraphPad, Inc., San Diego, Calif.).

[4] = system: NIH3T3 EML4-ALK WT tumors; assay: NIH3T3 EML4-ALK WT subcutaneous xenograft model; assay type: in vivo, athymic nude mice; settings: 12 days
[5] = Example 13: 15 mg/kg BID orally
[6] = Example 13: 75 mg/kg BID orally

T5 sequence (P07947 whole entry): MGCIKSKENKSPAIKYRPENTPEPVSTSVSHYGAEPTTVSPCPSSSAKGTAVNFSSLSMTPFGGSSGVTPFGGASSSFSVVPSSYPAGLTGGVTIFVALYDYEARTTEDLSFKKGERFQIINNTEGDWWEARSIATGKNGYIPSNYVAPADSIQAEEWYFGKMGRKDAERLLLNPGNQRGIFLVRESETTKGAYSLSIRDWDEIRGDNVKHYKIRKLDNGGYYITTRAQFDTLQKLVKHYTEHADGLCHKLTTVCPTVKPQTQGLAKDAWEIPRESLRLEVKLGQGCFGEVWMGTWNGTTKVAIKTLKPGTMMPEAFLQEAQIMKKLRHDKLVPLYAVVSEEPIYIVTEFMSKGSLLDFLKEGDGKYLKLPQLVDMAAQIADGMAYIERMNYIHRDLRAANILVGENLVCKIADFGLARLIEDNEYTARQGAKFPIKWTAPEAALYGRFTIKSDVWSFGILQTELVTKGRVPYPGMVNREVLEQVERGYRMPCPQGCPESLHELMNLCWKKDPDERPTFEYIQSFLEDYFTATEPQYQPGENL
T2 sequence (P21709 26-976): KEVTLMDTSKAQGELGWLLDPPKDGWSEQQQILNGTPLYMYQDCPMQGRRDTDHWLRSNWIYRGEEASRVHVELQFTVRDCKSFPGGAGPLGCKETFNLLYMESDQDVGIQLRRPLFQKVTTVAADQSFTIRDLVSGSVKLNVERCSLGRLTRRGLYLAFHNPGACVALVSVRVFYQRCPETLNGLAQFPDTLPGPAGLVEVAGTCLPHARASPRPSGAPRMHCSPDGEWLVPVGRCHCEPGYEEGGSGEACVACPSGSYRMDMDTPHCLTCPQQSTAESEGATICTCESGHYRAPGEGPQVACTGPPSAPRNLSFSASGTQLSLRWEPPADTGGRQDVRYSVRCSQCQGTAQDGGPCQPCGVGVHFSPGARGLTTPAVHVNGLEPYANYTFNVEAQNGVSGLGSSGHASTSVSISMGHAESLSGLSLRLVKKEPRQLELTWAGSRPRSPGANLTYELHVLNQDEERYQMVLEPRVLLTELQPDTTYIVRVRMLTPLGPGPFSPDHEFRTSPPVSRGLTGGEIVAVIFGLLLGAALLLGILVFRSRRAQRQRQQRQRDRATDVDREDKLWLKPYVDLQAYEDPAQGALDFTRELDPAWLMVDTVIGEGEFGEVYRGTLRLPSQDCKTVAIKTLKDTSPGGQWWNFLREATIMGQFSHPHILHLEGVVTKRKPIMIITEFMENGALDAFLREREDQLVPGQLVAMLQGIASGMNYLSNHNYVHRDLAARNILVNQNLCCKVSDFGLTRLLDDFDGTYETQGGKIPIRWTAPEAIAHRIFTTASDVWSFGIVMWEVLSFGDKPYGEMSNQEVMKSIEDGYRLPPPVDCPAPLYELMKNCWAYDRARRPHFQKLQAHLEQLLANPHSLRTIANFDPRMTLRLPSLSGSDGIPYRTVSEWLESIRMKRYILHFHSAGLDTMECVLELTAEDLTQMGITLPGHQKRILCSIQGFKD
T3 sequence (P06241 whole entry): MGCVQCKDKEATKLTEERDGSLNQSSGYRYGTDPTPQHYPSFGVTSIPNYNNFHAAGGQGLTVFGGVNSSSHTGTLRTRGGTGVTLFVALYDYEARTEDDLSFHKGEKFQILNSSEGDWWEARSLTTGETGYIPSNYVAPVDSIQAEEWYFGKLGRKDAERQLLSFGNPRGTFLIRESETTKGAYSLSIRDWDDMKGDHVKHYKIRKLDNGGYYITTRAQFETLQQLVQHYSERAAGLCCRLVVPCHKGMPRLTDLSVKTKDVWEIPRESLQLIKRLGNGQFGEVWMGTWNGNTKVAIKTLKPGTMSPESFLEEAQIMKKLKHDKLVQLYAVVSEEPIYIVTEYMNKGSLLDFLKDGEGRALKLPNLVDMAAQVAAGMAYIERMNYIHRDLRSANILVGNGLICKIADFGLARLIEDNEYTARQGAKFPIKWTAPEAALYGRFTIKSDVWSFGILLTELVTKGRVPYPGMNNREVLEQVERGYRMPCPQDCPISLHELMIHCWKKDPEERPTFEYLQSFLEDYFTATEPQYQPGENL
T6 sequence (P42681 whole entry): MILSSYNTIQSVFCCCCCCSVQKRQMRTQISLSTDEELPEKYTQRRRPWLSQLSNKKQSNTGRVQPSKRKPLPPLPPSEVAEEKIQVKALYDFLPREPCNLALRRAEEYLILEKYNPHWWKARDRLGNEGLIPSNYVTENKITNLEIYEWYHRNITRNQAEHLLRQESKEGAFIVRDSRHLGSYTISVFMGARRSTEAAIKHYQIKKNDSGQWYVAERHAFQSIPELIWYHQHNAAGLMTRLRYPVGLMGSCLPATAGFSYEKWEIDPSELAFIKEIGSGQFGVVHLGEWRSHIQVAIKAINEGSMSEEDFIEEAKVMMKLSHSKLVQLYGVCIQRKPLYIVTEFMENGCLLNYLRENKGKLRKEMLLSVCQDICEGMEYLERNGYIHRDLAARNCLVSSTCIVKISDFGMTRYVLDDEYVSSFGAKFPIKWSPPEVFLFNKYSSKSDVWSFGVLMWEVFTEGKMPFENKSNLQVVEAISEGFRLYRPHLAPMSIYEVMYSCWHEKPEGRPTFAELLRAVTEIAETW
T8 sequence (P23458 whole entry): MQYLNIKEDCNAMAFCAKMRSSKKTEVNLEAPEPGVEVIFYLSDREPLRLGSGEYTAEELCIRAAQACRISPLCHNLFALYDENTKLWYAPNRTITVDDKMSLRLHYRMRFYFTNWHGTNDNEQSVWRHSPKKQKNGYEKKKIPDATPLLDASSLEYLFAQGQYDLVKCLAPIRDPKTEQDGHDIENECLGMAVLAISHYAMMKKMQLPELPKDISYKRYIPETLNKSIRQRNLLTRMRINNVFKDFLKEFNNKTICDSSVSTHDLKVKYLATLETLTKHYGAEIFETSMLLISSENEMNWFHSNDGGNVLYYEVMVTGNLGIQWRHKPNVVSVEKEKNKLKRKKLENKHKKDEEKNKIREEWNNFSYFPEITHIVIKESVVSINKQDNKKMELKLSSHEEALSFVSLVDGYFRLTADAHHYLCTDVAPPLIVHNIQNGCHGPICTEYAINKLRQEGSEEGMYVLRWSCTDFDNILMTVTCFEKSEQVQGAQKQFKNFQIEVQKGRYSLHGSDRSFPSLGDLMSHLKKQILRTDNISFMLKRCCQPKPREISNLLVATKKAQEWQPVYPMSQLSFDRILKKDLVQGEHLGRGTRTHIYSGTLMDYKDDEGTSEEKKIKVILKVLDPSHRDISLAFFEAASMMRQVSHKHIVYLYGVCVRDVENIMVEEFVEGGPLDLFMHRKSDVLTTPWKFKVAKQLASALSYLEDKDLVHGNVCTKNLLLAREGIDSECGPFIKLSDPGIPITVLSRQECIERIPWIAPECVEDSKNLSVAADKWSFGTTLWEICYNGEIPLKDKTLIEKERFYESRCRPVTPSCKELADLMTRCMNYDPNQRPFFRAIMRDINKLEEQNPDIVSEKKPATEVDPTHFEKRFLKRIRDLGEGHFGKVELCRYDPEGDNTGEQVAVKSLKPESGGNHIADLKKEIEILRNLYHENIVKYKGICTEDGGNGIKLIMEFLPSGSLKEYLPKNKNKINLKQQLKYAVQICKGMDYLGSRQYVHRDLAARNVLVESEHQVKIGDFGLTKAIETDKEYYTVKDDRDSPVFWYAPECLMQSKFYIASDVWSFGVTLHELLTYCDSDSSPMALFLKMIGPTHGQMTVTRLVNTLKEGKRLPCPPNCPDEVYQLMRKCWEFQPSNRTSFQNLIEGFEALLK
T1 sequence (P27448 whole entry): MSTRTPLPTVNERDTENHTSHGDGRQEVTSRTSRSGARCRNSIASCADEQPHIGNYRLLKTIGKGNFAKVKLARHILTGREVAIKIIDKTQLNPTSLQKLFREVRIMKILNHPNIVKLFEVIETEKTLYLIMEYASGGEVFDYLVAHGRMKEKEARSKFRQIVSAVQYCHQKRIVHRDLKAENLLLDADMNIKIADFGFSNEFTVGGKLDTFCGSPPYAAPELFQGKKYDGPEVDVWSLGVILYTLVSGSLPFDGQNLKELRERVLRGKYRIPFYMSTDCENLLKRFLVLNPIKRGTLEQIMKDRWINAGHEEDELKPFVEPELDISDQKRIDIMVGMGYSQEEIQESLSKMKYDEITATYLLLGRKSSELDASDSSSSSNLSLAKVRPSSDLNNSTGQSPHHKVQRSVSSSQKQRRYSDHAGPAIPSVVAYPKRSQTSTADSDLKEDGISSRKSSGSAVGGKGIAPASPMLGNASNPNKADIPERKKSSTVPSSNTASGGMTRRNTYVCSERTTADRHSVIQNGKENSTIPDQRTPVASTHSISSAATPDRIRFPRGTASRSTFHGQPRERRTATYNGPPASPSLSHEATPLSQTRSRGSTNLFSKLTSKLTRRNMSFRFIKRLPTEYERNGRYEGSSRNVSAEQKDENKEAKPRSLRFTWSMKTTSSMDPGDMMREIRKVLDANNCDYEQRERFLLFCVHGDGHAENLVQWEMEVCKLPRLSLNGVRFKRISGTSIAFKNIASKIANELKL
T9 sequence (P08631 whole entry): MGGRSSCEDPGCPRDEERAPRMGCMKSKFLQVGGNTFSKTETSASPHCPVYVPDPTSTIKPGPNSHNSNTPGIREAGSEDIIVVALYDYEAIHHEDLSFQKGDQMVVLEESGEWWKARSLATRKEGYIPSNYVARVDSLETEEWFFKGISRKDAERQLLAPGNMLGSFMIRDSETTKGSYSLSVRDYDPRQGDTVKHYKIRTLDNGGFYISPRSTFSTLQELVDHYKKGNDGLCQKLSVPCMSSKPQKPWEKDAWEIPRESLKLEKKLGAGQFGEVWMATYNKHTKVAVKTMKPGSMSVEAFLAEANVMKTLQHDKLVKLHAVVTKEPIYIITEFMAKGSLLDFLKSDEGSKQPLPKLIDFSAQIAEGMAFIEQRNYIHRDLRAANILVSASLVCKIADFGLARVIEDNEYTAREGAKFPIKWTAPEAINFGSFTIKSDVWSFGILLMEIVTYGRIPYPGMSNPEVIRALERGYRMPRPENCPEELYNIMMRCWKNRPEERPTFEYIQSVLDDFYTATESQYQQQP

C[C@H]1CNC(=O)c2cnn3ccc(nc23)N[C@H](C)c2cc(F)ccc2O1 [Compound 1, (7S,13R)-11-fluoro-7,13-dimethyl-6,7,13,14-tetrahydro-1,15-ethenopyrazolo[4,3-f][1,4,8,10]benzoxatriazacyclotridecin-4(5H)-one]
IC50 (paxillin): ~103 nM | IC50 (MARK3): 512 nM | IC50 (EPHA1): 25 nM | IC50 (Ba/F3 + IL3 parental): 1240 nM | IC50 [1]: 3 nM | IC50 (FYN): 1.05 nM | IC50 (EPHA8): 50.2 nM | IC50 (YES): 2.15 nM | mice exhibiting tumor regression (KM12 tumors; [5]): 8 of 8 | tumor regression (REG) (KM12 tumors; [5]): 13% | mice exhibiting tumor regression (KM12 tumors; [6]): 5 of 8 | tumor regression (REG) (KM12 tumors; [6]): 11% | Tumor growth inhibition (TGI) (KM12 tumors; Example 15: 1 mg/kg BID orally): 77% | mice exhibiting tumor regression (KM12 tumors; Example 15: 3 mg/kg BID orally): 2 of 10 | mice exhibiting tumor regression (KM12 tumors; Example 15: 15 mg/kg BID orally): 5 of 10 | tumor regression (REG) (KM12 tumors; Example 15 dose dependent study: 15 mg/kg BID orally): 1% | mice exhibiting tumor regression (Karpas 299 tumors): 4 of 8 | IC50 (TXK): 3.17 nM | IC50 (BLK): 32.3 nM | IC50 (JAK1): 19 nM | apoptosis of Karpas-299 cells (caspase 3/7 glo, PARP western blotting) (Karpas-299 cells): increased the number of apoptotic Karpas-299 cells | IC50 [2]: 54 nM | IC50 (HCK): 16.4 nM | EGFR expression (EGFR): down-regulated EGFR expression in a dose- and time-dependent manner | mice exhibiting tumor regression [3]: 4 of 8 | IC50 (HCC78 cell line): 0.3 nM | mice exhibiting tumor regression ([4]; 15 mg/kg/BID orally): 2 of 8 | mice exhibiting tumor regression ([4]; 50 mg/kg/BID orally): 8 of 8 | tumor regression (REG) ([4]; 50 mg/kg/BID orally): 41%
